Results published in patent US20040013679A1, “LL-37 is an immunostimulant” (priority 2000, published 2004).
Marks after values point to notes of the source that are not given here.

Legend:
[1] = test system: human peripheral blood monocytes; assay: Monocyte chemotaxis assay (48-well microchemotaxis chamber, incl. checkerboard analysis); assay type: cell-based; details: for Migrated monocytes (checkerboard analysis): monocytes 1 × 10^6/ml, Mean ± SD of triplicate wells
Method: A. The migration of monocytes (1×10^6 cells/ml) was assessed by chemotaxis assay using 5-μm uncoated membranes. Spontaneous cell migration (without LL-37) was 30-50 cells/HPF. The average C. I. (Mean ±SD) of triplicate wells is shown. *p<0.05 when compared with chemotaxis medium alone (open bar). […]
(§1) Human peripheral blood mononuclear cells (PBMC) were isolated from leukopacks (Courtesy of the Transfusion Medicine Department, NIH Clinic Center, Bethesda, MD) by routine Ficoll-Hypaque density gradient centrifugation. Monocytes were purified from human PBMC with the use of MACS CD14 monocyte isolation kit (Miltenyi Biotech Inc., Auburn, CA) according to the manufacturer's recommendation (12). Neutrophils were purified from the same leukopacks by 3% dextran sedimentation. T cells were purified from PBMC by the use of Human CD4 T Cell Enrichment Columns (R & D Systems, Minneapolis, MN) (12). The purity of neutrophils, monocytes, and T cells by FACScan analysis was more than 95%. Rat basophilic leukemia cells stably transfected with epitope-tagged formyl peptide receptor (ETFR cells) were generously provided by Drs. H. Ali and R. Snyderman (Duke University, Durham, NC), and maintained in the presence of 0.8 mg/ml of geneticin in DMEM supplemented with 10% FBS. Human embryonic kidney cells 293 stably transfected with FPRL1 (designated FPRL1/293 cells thereafter) were a gift of Drs. P. M. Murphy and J. L. Gao (NIAID, NIH, Bethesda, Md) and were maintained in the presence of 2 mg/ml of geneticin in DMEM supplemented with 10% FBS.
(§2) Migration of neutrophils, monocytes, T cells, and HEK293 or transfectant cells in response to chemotactic factors was assessed using a 48-well microchemotaxis chamber technique as previously described (17, 18). Chemotactic factors diluted in chemotaxis medium (CM, RPMI 1640 containing 1% BSA) were placed in the wells of the lower compartment of the chamber (Neuro Probe, Cabin John, […]), and cells suspended in CM were added to the upper compartment. The lower and upper compartments were separated by a polycarbonate membrane (Osmonics, Livermore, Calf.). After incubation at 37_C in humidified air with 5% CO2 for a period of time (60 min for neutrophils, 90 min for monocytes, 180 min for T cells, and 300 min for HEK293, ETFR, and FPRL1/293 cells), the membranes were removed, scraped, stained, and counted. The results are presented as number of cells per high power field (No./HPF) or as chemotactic index (C.I.).

[2] = test system: human peripheral blood monocytes; assay: Ca2+ mobilization assay in monocytes (Fura-2); assay type: cell-based; parameters: Ca2+ flux in freshly isolated monocytes at single concentration: dose or concentration left out as unconfirmed
Excerpt: as §1
(§3) Monocytes or FPRL1/293 cells (10^7 cells/ml in RPMI 1640 containing 10% FBS) were loaded by incubating with 5 μM Fura-2 (Molecular Probe) at 24_C for 30 minutes in the dark. Subsequently, the loaded cells were washed with and resuspended (10^6 cells/ml) in saline buffer (138 mM NaCl, 6 mM KC1, 1 mM CaCl2, 10 mM HEPES, 5 mM glucose, and 1% BSA, pH 7.4). Each 2 ml of loaded cells suspension was then transferred into a quartz cuvette, which was placed in a luminescence spectrometer LS50 B (Perkin-Elmer Limited, Beaconsfield, U.K). Ca^2+mobilization of the cells in response to chemotactic factors was measured by recording the ratio of fluorescence emitted at 510 nm after sequential excitation at 340 nm and 380 nm.

[3] = molecular target: T1, FPRL1 (HEK293 cells stably transfected with FPRL1) (Homo sapiens, UniProt P25090); assay: Chemotaxis of FPRL1/293 cells; assay type: cell-based; details: FIG. 3A
T1 construct: expressed in transfected cells; gift of P. M. Murphy and J. L. Gao (NIAID, NIH)
T1 sequence (P25090 1-351): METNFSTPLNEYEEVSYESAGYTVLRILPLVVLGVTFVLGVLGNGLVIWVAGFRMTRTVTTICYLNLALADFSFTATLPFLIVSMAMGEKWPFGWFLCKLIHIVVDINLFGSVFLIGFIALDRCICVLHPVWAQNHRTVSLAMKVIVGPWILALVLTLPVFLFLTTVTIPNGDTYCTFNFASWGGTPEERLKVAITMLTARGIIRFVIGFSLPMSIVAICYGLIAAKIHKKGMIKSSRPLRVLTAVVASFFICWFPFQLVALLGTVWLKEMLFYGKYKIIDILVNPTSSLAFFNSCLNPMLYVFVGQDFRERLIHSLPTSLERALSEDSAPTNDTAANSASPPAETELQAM
Method: (§4) A. Selective induction of FPRL1/293 cell chemotaxis by LL-37. The migration of parental HEK293 (open bars), FPRL1/293 (dotted bars), or ETFR (closed bars) cells was assessed by chemotaxis assay with the use of collagen-coated 10-μm membranes. Cells were used at a concentration of 1×10^6 cells/ml. The average C. I. (Mean±SD) of triplicate wells is shown. Spontaneous cell migration (without LL-37) was 10-20 cells/HPF. *p<0.05 when compared with chemotaxis medium alone.
(§5) Human peripheral blood mononuclear cells (PBMC) were isolated from leukopacks (Courtesy of the Transfusion Medicine Department, NIH Clinic Center, Bethesda, MD) by routine Ficoll-Hypaque density gradient centrifugation. Monocytes were purified from human PBMC with the use of MACS CD14 monocyte isolation kit (Miltenyi Biotech Inc., Auburn, CA) according to the manufacturer's recommendation (12). […]
(§6) Migration of neutrophils, monocytes, T cells, and HEK293 or transfectant cells in response to chemotactic factors was assessed using a 48-well microchemotaxis chamber technique as previously described (17, 18). […] After incubation at 37_C in humidified air with 5% CO2 for a period of time (60 min for neutrophils, 90 min for monocytes, 180 min for T cells, and 300 min for HEK293, ETFR, and FPRL1/293 cells), the membranes were removed, scraped, stained, and counted. […]

parental HEK293 cells = assay: Chemotaxis of parental HEK293 cells; assay type: cell-based, human; details: FIG. 3A
Method: as §4, §2

[4] = molecular target: T2, formyl peptide receptor (ETFR cells) (Homo sapiens, UniProt P21462); assay: Chemotaxis of ETFR cells; assay type: cell-based; details: FIG. 3A
T2 construct: expressed in transfected cells; provided by H. Ali and R. Snyderman (Duke University)
T2 sequence (P21462 1-350): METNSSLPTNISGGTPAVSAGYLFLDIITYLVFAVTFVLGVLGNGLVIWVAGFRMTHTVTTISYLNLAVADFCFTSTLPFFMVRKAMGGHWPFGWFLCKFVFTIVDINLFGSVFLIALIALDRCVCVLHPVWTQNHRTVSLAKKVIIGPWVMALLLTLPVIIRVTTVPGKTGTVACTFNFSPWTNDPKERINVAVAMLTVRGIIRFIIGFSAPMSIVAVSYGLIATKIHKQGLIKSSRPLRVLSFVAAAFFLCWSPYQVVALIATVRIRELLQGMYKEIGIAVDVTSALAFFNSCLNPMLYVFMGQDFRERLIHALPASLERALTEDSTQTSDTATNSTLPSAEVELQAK
Method: as §4, §5, §6

FPRL1 (FPRL1/293 cells) = molecular target: T3, FPRL1 (FPRL1/293 cells) (Homo sapiens, UniProt P25090); assay: Ca2+ mobilization assay in FPRL1/293 cells; assay type: cell-based; details: FIG. 3B
T3 construct: expressed in transfected cells; gift of P. M. Murphy and J. L. Gao (NIAID, NIH)
T3 sequence (P25090 1-351): T1 sequence (P25090 1-351)
Excerpt: B. LL-37-induced Ca^2+ flux in FPRL1/293 cells. The arrow indicates the time point where LL-37 was applied to the cells.
as §5, with “(12). Neutrophils were purified from the same leukopacks by 3% dextran sedimentation. T cells were purified from PBMC by the use of Human CD4 T Cell Enrichment Columns (R & D Systems, Minneapolis, MN) (12). The purity of neutrophils, monocytes, and T cells by FACScan analysis was more than 95%.” for “(12).”
as §3, with “Subsequently, the loaded cells were washed with and resuspended (10^6 cells/ml) in saline buffer (138 mM NaCl, 6 mM KC1, 1 mM CaCl2, 10 mM HEPES, 5 mM glucose, and 1% BSA, pH 7.4).” left out

[5] = molecular target: T2, formyl peptide receptor (ETFR cells); assay: Ca2+ flux in ETFR cells; assay type: cell-based
[6] = test system: human peripheral blood neutrophils; assay: Neutrophil chemotaxis assay; assay type: cell-based
Method: (§7) FIGS. 4A-B show the chemotaxis of human neutrophils (A) and CD4 T lymphocytes (B) in response to LL-37. The cell migration was assessed by chemotaxis assay with the use of uncoated (A) or fibronectin-coated (B) 5 μm membranes. The results are presented as the average C. I. (Mean±SD) of triplicate wells. *p<0.05 when compared with spontaneous cell migration (chemotactic medium alone). Neutrophils and CD4 T cells were used at a concentration of 1×10^6 cells/ml and 5×10^6 cells/ml, respectively. Spontaneous neutrophil and T cell migration (without LL-37) was 30-50 and 30-40 cells/HPF, respectively.
(§8) Human peripheral blood mononuclear cells (PBMC) were isolated from leukopacks (Courtesy of the Transfusion Medicine Department, NIH Clinic Center, Bethesda, MD) by routine Ficoll-Hypaque density gradient centrifugation. […]
as §6

human CD4 T cells = assay: CD4 T lymphocyte chemotaxis assay; assay type: cell-based
Method: as §7, §8, §6

immature dendritic cells [7] = assay: Chemotaxis of monocyte-derived immature dendritic cells; assay type: cell-based, human; details: monocytes differentiated into immature dendritic cells
immature dendritic cells [8] = assay: Ca2+ mobilization in monocyte-derived immature dendritic cells; assay type: cell-based, human; details: monocytes differentiated into immature dendritic cells
CCR2 = molecular target: T4, CCR2 (Homo sapiens, UniProt P41597); assay: Examination of HEK293 cells stably transfected to express CCR2; assay type: cell-based
T4 construct: expressed in transfected cells
T4 sequence (P41597 whole entry): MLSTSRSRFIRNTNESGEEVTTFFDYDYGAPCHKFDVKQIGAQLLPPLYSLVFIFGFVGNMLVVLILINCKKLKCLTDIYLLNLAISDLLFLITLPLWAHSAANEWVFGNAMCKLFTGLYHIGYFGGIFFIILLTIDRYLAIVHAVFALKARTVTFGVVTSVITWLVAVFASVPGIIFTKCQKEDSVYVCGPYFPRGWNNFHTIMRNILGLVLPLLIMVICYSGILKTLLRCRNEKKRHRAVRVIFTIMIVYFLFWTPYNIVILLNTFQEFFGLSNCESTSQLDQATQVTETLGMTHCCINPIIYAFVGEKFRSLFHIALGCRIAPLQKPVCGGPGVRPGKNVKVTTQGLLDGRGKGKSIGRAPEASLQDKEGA
Excerpt: To mediate its chemotactic effect on monocytes, LL-37 must use a chemotactic receptor expressed by monocytes, but not by monocyte-derived immature dendritic cells.

[9] = 10% human AB serum; LL-37 at 10^−5 M; cited from earlier work
mammalian cells = details: cited from earlier work

With “LL-37: 37-residue mature antimicrobial peptide cleaved from hCAP18, human cathelicidin; synthesized by solid-phase Fmoc chemistry” the “LL-37-induced chemotaxis of monocytes in presence of serum” value ([1]; 10% human AB serum, FIG. 2B) was “not significantly inhibited”, the “Migrated monocytes (checkerboard analysis)” value (“Migrated monocytes” below) ([1]; LL-37 lower wells 0 μM, upper wells 1 μM) was 45 ± 6 No./HPF and the “Migrated monocytes” value ([1]; LL-37 lower wells 0 μM, upper wells 10 μM) was 44 ± 7 No./HPF. For the same substance, the “Migrated monocytes” value ([1]; LL-37 lower wells 1 μM, upper wells 0 μM) was 135 ± 15** No./HPF, the “Migrated monocytes” value ([1]; LL-37 lower wells 1 μM, upper wells 1 μM) was 50 ± 8 No./HPF and the “Migrated monocytes” value ([1]; LL-37 lower wells 1 μM, upper wells 10 μM) was 40 ± 6 No./HPF. For the same substance, the “Migrated monocytes” value ([1]; LL-37 lower wells 10 μM, upper wells 0 μM) was 495 ± 29** No./HPF, the “Migrated monocytes” value ([1]; LL-37 lower wells 10 μM, upper wells 1 μM) was 265 ± 5** No./HPF and the “Migrated monocytes” value ([1]; LL-37 lower wells 10 μM, upper wells 10 μM) was 95 ± 2* No./HPF. For the same substance, the “Optimal concentration for induction of monocyte migration” value ([1]; dose-dependent, FIG. 1A) was 10^−5 M, the “Induction of Ca2+ flux in monocytes” value ([2]; FIG. 1B) was “dose-dependently induced Ca^2+ flux” and the “Desensitization of Su peptide-induced Ca2+ flux in monocytes” value ([2]; Su peptide after LL-37 at 10^−5 M, FIG. 3C b) was “almost completely desensitized”. For the same substance, the “Ca2+ flux in freshly isolated monocytes at single concentration” value ([2]; peptide, FIG. 3C a and c) was “induced Ca^2+ flux to a similar extent”, the “Migration of FPRL1/293 cells” value [3] was “migrated in response to LL-37 in a dose-dependent manner” and the “Migration of parental HEK293 cells” value (parental HEK293 cells) was “did not respond”. For the same substance, the “Migration of ETFR cells” value [4] was “did not respond”, the “Ca2+ flux in FPRL1/293 cells” value (FPRL1 (FPRL1/293 cells)) was “induced Ca^2+flux in a dose-dependent manner” and the “Ca2+ flux in ETFR cells” value [5] was “not in ETFR cells”. The “Optimal concentration to chemoattract human leukocytes (neutrophils)” value ([6]; FIG. 4) was 10^−5 M, the “Migration of purified neutrophils” value ([6]; FIG. 4A) was “induced dose-dependent migration” and the “Optimal concentration to chemoattract human leukocytes (CD4 T cells)” value (human CD4 T cells; FIG. 4) was 10^−5 M. For the same substance, the “Migration of CD4 T cells” value (human CD4 T cells; FIG. 4B) was “induced dose-dependent migration”, the “Chemotaxis response of immature dendritic cells” value (immature dendritic cells [7]) was “could not respond” and the “Ca2+ mobilization response of immature dendritic cells” value (immature dendritic cells [8]) was “could not respond”. For the same substance, the “CCR2 as a receptor (CCR2-transfected HEK293 cells)” value (CCR2) was “CCR2 was not a receptor”, the “Antimicrobial activity in presence of serum” value [9] was “completely block” and the “Concentration damaging mammalian cells (cytocidal effect)” value (mammalian cells) was “above 5×10^−5 M”.
